Assay results: patent publication US9902696B2, “1,4-substituted piperidine derivatives” (Cephalon, Inc., priority 2015, dated 2018)
Where a name gives a salt, the structure may show the parent alone. Read-outs that look alike come from different tables or passages of the source.

Biological target: T1, recombinant human baculovirus-expressed GST-tagged FASN (Homo sapiens, UniProt P49327)
T1 construct: GST
Assay: FASN enzyme activity assay, fluorescence-based detection of CoA with CPM
Assay type: biochemical
Settings: 5 nM FASN, 150 μM NADPH, 10 μM acetyl-CoA, 25 μM malonyl-CoA, 90 minutes incubation
Method in brief: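 Human GST-tagged FASN, baculovirus-expressed (5 nM), in 50 mM HEPES pH 7.5 with 150 μM NADPH, 10 μM acetyl-CoA, 25 μM malonyl-CoA, 0.5% DMSO; malonyl-CoA-started, 90 min. Released CoA detected with CPM (50 μM dilution), 30 min, fluorescence ex 390/em 530. IC50 from variable-slope sigmoidal fit of % inhibition versus log concentration.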

[1] = read-out: IC50 data for Compounds of Formulae I-V/V(a): Activity
[2] = read-out: IC50 data for Additional Compounds of Formulae I-V(a): Activity

T1 sequence (P49327 whole entry): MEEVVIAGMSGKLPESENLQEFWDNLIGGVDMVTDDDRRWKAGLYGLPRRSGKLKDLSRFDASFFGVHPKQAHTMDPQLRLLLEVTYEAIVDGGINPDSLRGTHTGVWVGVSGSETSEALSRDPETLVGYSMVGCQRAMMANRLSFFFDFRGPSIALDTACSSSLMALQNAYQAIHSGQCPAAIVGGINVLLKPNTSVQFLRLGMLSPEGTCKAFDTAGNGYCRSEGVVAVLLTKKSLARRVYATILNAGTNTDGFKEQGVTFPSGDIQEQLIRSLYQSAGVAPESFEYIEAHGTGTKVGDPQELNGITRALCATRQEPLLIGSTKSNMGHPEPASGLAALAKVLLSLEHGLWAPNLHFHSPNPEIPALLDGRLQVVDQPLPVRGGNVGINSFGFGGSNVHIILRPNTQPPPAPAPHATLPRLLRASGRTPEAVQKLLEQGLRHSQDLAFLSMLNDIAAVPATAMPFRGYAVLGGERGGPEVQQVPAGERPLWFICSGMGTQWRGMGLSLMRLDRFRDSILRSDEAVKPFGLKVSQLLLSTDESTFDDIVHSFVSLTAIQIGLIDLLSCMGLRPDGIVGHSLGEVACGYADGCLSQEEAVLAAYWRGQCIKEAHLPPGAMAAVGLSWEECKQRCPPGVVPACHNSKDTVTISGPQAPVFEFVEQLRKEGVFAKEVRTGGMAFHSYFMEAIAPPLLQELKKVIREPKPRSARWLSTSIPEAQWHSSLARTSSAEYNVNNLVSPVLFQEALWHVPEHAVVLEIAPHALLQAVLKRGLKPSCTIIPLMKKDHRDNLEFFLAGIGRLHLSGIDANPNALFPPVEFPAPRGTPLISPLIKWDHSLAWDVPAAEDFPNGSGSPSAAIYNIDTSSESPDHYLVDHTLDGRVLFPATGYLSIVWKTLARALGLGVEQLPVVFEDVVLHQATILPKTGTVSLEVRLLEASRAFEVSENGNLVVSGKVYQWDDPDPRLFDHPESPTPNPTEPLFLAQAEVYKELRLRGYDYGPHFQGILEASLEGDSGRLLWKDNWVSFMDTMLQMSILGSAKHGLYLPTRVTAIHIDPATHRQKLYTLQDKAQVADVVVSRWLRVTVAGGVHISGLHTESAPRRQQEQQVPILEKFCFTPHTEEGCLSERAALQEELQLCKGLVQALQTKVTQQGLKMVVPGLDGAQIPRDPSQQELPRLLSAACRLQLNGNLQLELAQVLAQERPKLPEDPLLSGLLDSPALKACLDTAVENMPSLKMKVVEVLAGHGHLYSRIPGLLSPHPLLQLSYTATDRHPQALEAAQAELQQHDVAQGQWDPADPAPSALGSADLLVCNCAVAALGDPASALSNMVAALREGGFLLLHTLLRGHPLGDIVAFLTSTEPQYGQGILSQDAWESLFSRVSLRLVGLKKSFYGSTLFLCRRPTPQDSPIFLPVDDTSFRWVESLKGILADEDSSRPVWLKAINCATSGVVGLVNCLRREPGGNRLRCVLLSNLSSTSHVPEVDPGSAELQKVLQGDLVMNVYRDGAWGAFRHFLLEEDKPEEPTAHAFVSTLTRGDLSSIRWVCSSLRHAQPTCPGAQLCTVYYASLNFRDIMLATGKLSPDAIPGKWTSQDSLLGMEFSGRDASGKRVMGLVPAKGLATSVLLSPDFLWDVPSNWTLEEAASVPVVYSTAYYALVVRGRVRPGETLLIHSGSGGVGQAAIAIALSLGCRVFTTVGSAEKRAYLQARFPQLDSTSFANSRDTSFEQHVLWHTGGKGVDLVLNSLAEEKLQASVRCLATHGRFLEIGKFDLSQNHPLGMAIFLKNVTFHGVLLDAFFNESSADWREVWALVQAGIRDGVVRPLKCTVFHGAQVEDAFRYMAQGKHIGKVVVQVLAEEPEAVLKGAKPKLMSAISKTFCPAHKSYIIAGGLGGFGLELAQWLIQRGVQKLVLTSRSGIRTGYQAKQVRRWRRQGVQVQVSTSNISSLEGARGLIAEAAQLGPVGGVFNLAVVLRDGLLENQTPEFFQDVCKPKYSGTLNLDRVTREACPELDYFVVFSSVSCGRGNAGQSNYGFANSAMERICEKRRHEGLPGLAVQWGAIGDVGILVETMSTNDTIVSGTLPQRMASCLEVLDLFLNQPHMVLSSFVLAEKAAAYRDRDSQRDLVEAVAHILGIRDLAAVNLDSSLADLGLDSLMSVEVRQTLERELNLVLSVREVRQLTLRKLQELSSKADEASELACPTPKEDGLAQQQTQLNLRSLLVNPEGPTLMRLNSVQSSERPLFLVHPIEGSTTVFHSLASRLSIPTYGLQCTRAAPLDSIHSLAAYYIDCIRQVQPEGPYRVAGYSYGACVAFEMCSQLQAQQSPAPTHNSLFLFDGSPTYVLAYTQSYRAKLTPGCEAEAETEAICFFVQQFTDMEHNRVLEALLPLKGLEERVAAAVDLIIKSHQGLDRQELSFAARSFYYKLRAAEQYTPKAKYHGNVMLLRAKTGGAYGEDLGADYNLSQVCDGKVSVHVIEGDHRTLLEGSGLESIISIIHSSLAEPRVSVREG

SMILES	IC50 [1] [nM]	IC50 [2] [nM]
CCC(=O)N1CCC(Oc2ccc(-c3cnc4ccccc4c3N3CCOCC3)cc2)CC1 [Example 237, 1-{4-[4-(4-Morpholin-4-yl-quinolin-3-yl)-phenoxy]-piperidin-1-yl}-propan-1-one]	1000 to 10000	
CCC(=O)N1CCC(Oc2ccc(-c3cnc4cc(OC)c(C)cc4c3)cc2)CC1 [Example 441, 1-{4-[4-(7-Methoxy-6-methylquinolin-3-yl)-phenoxy]-piperidin-1-yl}-propan-1-one]	1000 to 10000	
O=C(C1CC1)N1CCC(Oc2ccc(-c3cnc4ccccc4c3)c(Cl)c2)CC1 [Example 205, [4-(3-Chloro-4-quinolin-3-yl-phenoxy)-piperidin-1-yl]-cyclopropyl-methanone]	1 to 99	
COCCOC(=O)N1CCC(Oc2ccc(-c3ccc4cccnc4c3C)cc2)CC1 [Example 555, 2-Methoxyethyl 4-[4-(8-methyl-7-quinolyl)phenoxy]piperidine-1-carboxylate, HCl]		1000 to 10000
Cc1c(-c2ccc(OC3CCN(C(=O)C4CC4)C(C)C3)cc2)ccc2cccnc12 (racemic) [Example 365, Cyclopropyl-{2-methyl-4-[4-(8-methylquinolin-7-yl)-phenoxy]-piperidin-1-yl}-methanone HCl]	1000 to 10000	
CCC(=O)N1CCC(Oc2ccc(-c3ccc4cccnc4c3C#N)cc2)CC1 [Example 330, 7-[4-(1-Propionyl-piperidin-4-yloxy)-phenyl]-quinoline-8-carbonitrile]	100 to 999	
CCC(=O)N1CCC(Oc2ccc(-c3ccc4cccnc4c3)cc2)CC1 [Example 4, 1-[4-(4-Quinolin-7-yl-phenoxy)-piperidin-1-yl]-propan-1-one]	1 to 99	
Cc1c(-c2ccc(OC3CCN(C(=O)C4CC(F)(F)CO4)CC3)cc2)ccc2cccnc12 (stereo not drawn) [Example 164]	100 to 999	
COc1nccc2cc(-c3ccc(OC4CCN(C(=O)C5CCC5)CC4)cc3)ccc12 [Example 434, Cyclobutyl-{4-[4-(1-methoxyisoquinolin-6-yl)-phenoxy]-piperidin-1-yl}-methanone]	100 to 999	
COc1cc(-c2ccc(OC3CCN(C(=O)C4CC4)CC3)cc2)cn2nccc12 [Example 411, Cyclopropyl-{4-[4-(4-methoxypyrazolo[1,5-a]pyridin-6-yl)-phenoxy]-piperidin-1-yl}-methanone, HCl]	100 to 999	
CCC(=O)N1CC[C@H](Oc2ccc(-c3cnc4ccccc4c3)cc2)C1 [Example 343, (S)-1-(3-(4-(Quinolin-3-yl)phenoxy)pyrrolidin-1-yl)propan-1-one, HCl]	1000 to 10000	
O=C1OCCN1C(=O)N1CCC(Oc2ccc(-c3cnc4ccccc4c3)cc2)CC1 [Example 241, 3-[4-(4-Quinolin-3-yl-phenoxy)-piperidine-1-carbonyl]-oxazolidin-2-one]	1000 to 10000	
CCC(=O)N1CCC(Oc2ccc(-c3cnc4ncccc4c3)cc2)CC1 [Example 252, 1-[4-(4-[1,8]Naphthyridin-3-yl-phenoxy)-piperidin-1-yl]-propan-1-one, TFA salt]	100 to 999	
CC(C)C(=O)N1CCC(Oc2ccc(-c3ccc4cccnc4c3)cc2Cl)CC1 [Example 195, 1-[4-(2-Chloro-4-quinolin-7-yl-phenoxy)-piperidin-1-yl]-2-methyl-propan-1-one]	1000 to 10000	
COCCNC(=O)N1CCC(Oc2ccc(-c3ccc4nccn4c3C)cc2)CC1 [Example 597, N-(2-Methoxyethyl)-4-[4-(5-methylimidazo[1,2-a]pyridin-6-yl)phenoxy]-piperidine-1-carboxamide]		1000 to 10000
Cc1c(-c2ccc(OC3CCN(C(=O)[C@H]4CCCO4)CC3)c(F)c2)ccc2cccnc12 [Example 226, {4-[2-Fluoro-4-(8-methylquinolin-7-yl)-phenoxy]-piperidin-1-yl}-(R)-tetrahydrofuran-2-yl-methanone]	1 to 99	
CCC(=O)N1CCC(Oc2ccc(-c3ccc4cccnc4c3OCCCOC)cc2)CC1 [Example 179, 1-[4-[4-[8-(3-Methoxypropoxy)-7-quinolyl]phenoxy]-1-piperidyl]propan-1-one, HCl]	100 to 999	
COc1cc2cc(-c3ccc(OC4CCN(C(=O)C5CC5)CC4)cc3)cnc2cc1OC [Example 56, Cyclopropyl-{4-[4-(6,7-dimethoxyquinolin-3-yl)-phenoxy]-piperidin-1-yl}-methanone]	1000 to 10000	
O=C([C@H]1CCCO1)N1CCC(Oc2ccc(-c3cnc4cccc(F)c4c3)cc2)CC1 [Example 28, {4-[4-(5-Fluoroquinolin-3-yl)-phenoxy]-piperidin-1-yl}-(R)-tetrahydrofuran-2-yl-methanone]	1 to 99	
COc1c(-c2ccc(OC3CCN(C(=O)C4CC4)CC3)cc2)ccc2cccnc12 [Example 274, Cyclopropyl-{4-[4-(8-methoxyquinolin-7-yl)-phenoxy]-piperidin-1-yl}-methanone, HCl]	1 to 99	

SMILES	IC50 [1] [nM]	IC50 [2] [nM]
O=C(N1CCC(Oc2ccc(-c3ccn4cnnc4c3)cc2)CC1)C1(O)CC1 [Example 306, (1-Hydroxycyclopropyl)-[4-(4-[1,2,4]triazolo[4,3-a]pyridin-7-yl-phenoxy)-piperidin-1-yl]-methanone]	1000 to 10000	
CCC(=O)N1CC[C@@H](Oc2ccc(-c3ccc4cccnc4c3C)cc2)[C@H](F)C1 (relative stereo) [Example 373, 1-{trans-3-Fluoro-4-[4-(8-methylquinolin-7-yl)-phenoxy]-piperidin-1-yl}-propan-1-one, HCl]	100 to 999	
NC(=O)c1c(-c2ccc(OC3CCN(C(=O)[C@H]4CCCO4)CC3)cc2)ccc2cccnc12 [Example 336, 7-[4-[[1-[(2R)-Tetrahydrofuran-2-carbonyl]-4 piperidyl]oxy]phenyl]quinoline-8-carboxamide]	100 to 999	
COc1cc2cc(-c3ccc(OC4CCN(C(=O)[C@H]5CCCO5)CC4)cc3)ccc2cn1 [Example 418, {4-[4-(3-Methoxy-isoquinolin-6-yl)-phenoxy]-piperidin-1-yl}-(R)-tetrahydrofuran-2-yl-methanone]	1 to 99	
Cc1c(-c2ccc(O[C@@H]3CCN(C(=O)C4CC4)C[C@H]3F)cc2)ccc2cccnc12 (relative stereo) [Example 374, Cyclopropyl-{trans-3-fluoro-4-[4-(8-methylquinolin-7-yl)-phenoxy]-piperidin-1-yl}-methanone, HCl]	100 to 999	
CNc1c(-c2ccc(OC3CCN(C(=O)[C@H]4CCCO4)CC3)cc2)ccc2cccnc12 [Example 325, {4-[4-(8-Methylaminoquinolin-7-yl)-phenoxy]-piperidin-1-yl}-(R)-tetrahydrofuran-2-yl-methanone]	1 to 99	
CCC(=O)N1CCC(Oc2ccc(-c3ccc4c(Cl)nccc4c3)cc2)CC1 [Example 419, 1-{4-[4-(1-Chloroisoquinolin-6-yl)-phenoxy]-piperidin-1-yl}-propan-1-one]	100 to 999	
CCC(=O)N1CCC(Oc2ccc(-c3cnc4cccc(C)c4c3)cc2)CC1 [Example 460, 1-{4-[4-(5-Methylquinolin-3-yl)-phenoxy]-piperidin-1-yl}-propan-1-one, HCl]	100 to 999	
CCC(=O)N1CC[C@@H](Oc2ccc(-c3cnc4ccccc4c3)cc2)C1 [Example 345, (R)-1-(3-(4-(quinolin-3-yl)phenoxy)pyrrolidin-1-yl)propan-1-one, HCl]	1000 to 10000	
CCC(=O)N1CCC(Oc2ccc(-c3ccc4cnccc4c3)cc2)CC1 [Example 1, 1-[4-(4-Isoquinolin-6-yl-phenoxy)-piperidin-1-yl]-propan-1-one]	1 to 99	
O=C(C1CC1)N1CCC(Oc2ccc(-c3ccc4c(c3)OCCO4)cc2)CC1 [Example 503, Cyclopropyl-{4-[4-(2,3-dihydro-1,4-benzodioxin-6-yl)-phenoxy]-piperidin-1-yl}-methanone]	1000 to 10000	
O=C(C1CC1)N1CCC(Oc2ccc(-c3cnc4cc(F)ccc4c3)cc2)CC1 [Example 477, Cyclopropyl-{4-[4-(7-fluoroquinolin-3-yl)-phenoxy]-piperidin-1-yl}-methanone]	1 to 99	
CCC(=O)N1CCC(Oc2ccc(-c3ccnc(-c4ccccc4)c3)cc2)CC1 [Example 402, 1-{4-[4-(2-Phenylpyridin-4-yl)-phenoxy]-piperidin-1-yl}-propan-1-one, TFA]	1000 to 10000	
Cc1c(-c2ccc(OC3CCN(C(=O)OCCN4CCOCC4)CC3)cc2)ccc2cccnc12 [Example 546, 2-Morpholinoethyl 4-[4-(8-methyl-7-quinolyl)phenoxy]piperidine-1-carboxylate 2HCl]		1000 to 10000
Cn1ncc2ccc(-c3ccc(OC4CCN(C(=O)C5CC5)CC4)cc3)cc21 [Example 270, Cyclopropyl-{4-[4-(1-methyl-1H-indazol-6-yl)-phenoxy]-piperidin-1-yl}-methanone. TFA salt]	100 to 999	
CN(C)c1c(-c2ccc(OC3CCN(C(=O)C4CC4)CC3)cc2)ccc2cccnc12 [Example 333, Cyclopropyl-{4-[4-(8-dimethylamino-quinolin-7-yl)-phenoxy]-piperidin-1-yl}-methanone]	1000 to 10000	
CC(=O)OCC(=O)N1CCC(Oc2ccc(-c3ccc4cccnc4c3C)cc2)CC1 [Example 625, [2-[4-[4-(8-Methyl-7-quinolyl)phenoxy]-1-piperidyl]-2-oxo-ethyl]acetate]		1 to 99
Cc1c(-c2ccc(O[C@H]3CCN(C(=O)C4CC4)C[C@H]3F)cc2)ccc2cccnc12 (relative stereo) [Example 368, Cyclopropyl-{cis-3-fluoro-4-[4-(8-methylquinolin-7-yl)-phenoxy]-piperidin-1-yl}-methanone, HCl]	1000 to 10000	
CCC(=O)N1CCC(Oc2ccc(-c3ccc4nccn4c3)cc2)CC1 [Example 256, 1-[4-(4-Imidazo[1,2-a]pyridin-6-yl-phenoxy)-piperidin-1-yl]-propan-1-one, TFA salt]	100 to 999	
